Measurements from EP2319852A1, “Triphenylphosphine derivatives” (Universitat Autònoma De Barcelona, priority 2009, dated 2011).
Blank lines part the entries; values can stand above or below the molecule they belong to.

How the values were obtained:
[1] = Aerial oxidation of the phosphines in aqueous solution, followed by 31P{1H} NMR; assay type: physicochemical; conditions: for Oxidation percentage over time: distilled water, 5.10^-2 mM, open to air, vigorous stirring; for oxidize in the air: 5·10^-2 mM aqueous solution, room temperature
Protocol: 4. Aerial oxidation of the phosphines in aqueous solution
Solutions in distilled water (1 mL, 5.10^-2 mM ) of the phosphines represented below were prepared with the aim of comparing their inertness against aerial oxidation. The solutions were kept opened to air under vigorous stirring for 120 h. Aliquots were taken and analyzed by ^31P{^1H} NMR in order to quantify the oxidation progress.

[2] = Determination of water solubility of the sodium salts of the phosphines; assay type: physicochemical; conditions: saturated supernatant evaporated to dryness and weighed
Protocol: 3. Determination of water solubility of trifluoromethylated sulfonated phosphines of Formula (I)
Oversaturated aqueous solutions of the sodium salts of the phosphines of Formula (I) were prepared. The supernatant solution was ultracentrifugated, and then filtered through a nylon filter, a measured weight of this solution was evaporated to dryness and the solid residue was weighed.

SMILES: O=S(=O)([O-])c1cccc(P(c2ccccc2)c2cccc(S(=O)(=O)[O-])c2)c1.[Na+].[Na+] [Na2TPPDS]
Oxidation percentage over time ([1]; 0 h): 0%
oxidize in the air ([1]; 16 h): about 5%
Oxidation percentage over time ([1]; 16 h): 6%
Oxidation percentage over time ([1]; 40 h): 33%
Oxidation percentage over time ([1]; 120 h): 100%

SMILES: O=S(=O)([O-])c1cccc(P(c2ccccc2)c2ccccc2)c1.[Na+] [NaTPPMS, triphenylphosphine monosulfonate]
Oxidation percentage over time ([1]; 0 h): 0%
oxidize in the air ([1]; 16 h): about 5%
Oxidation percentage over time ([1]; 16 h): 4%
Oxidation percentage over time ([1]; 40 h): 25%
Oxidation percentage over time ([1]; 120 h): 68%

SMILES: O=S(=O)(O)c1cccc(P(c2cccc(S(=O)(=O)O)c2)c2ccccc2C(F)(F)F)c1 [Phosphine 3]
solubility thermodynamic [2]: 30 mg/mL

SMILES: O=S(=O)(O)c1cccc(P(c2ccc(C(F)(F)F)cc2)c2ccc(C(F)(F)F)cc2)c1 [Phosphine 4]
solubility thermodynamic [2]: 2 to 12 mg/mL

SMILES: O=S(=O)(O)c1cccc(P(c2ccccc2)c2cc(C(F)(F)F)cc(C(F)(F)F)c2)c1 (centres unmarked) [Phosphine 8]
solubility thermodynamic [2]: > 1000 mg/mL

Now from value to molecule:

solubility thermodynamic [2]: 2 to 12 mg/mL
SMILES: O=S(=O)(O)c1cccc(P(c2cc(C(F)(F)F)cc(C(F)(F)F)c2)c2cc(C(F)(F)F)cc(C(F)(F)F)c2)c1 [Phosphine 5]

solubility thermodynamic [2]: 2 to 12 mg/mL
SMILES: O=S(=O)(O)c1cccc(P(c2ccccc2C(F)(F)F)c2ccccc2C(F)(F)F)c1 [Phosphine 6]

solubility thermodynamic [2]: 500 mg/mL
SMILES: O=S(=O)(O)c1cccc(P(c2ccccc2)c2ccc(C(F)(F)F)cc2)c1 (centres unmarked) [Phosphine 7]

solubility thermodynamic [2]: 210 mg/mL
SMILES: O=S(=O)(O)c1cccc(P(c2ccccc2)c2ccccc2C(F)(F)F)c1 (centres unmarked) [Phosphine 9]
